Laboratory results reported in patent US20080194701A1, “Bifunctional Enzyme with Y-Glutamylcysteine Synthetase and Glutathione Synthetase Activity and Uses Thereof” (priority 2004, published 2008).

Key:
[1] = target: T1, Human γ-GCS (Homo sapiens, UniProt P48506); settings: cited from earlier work
T1 sequence (P48506 1-637): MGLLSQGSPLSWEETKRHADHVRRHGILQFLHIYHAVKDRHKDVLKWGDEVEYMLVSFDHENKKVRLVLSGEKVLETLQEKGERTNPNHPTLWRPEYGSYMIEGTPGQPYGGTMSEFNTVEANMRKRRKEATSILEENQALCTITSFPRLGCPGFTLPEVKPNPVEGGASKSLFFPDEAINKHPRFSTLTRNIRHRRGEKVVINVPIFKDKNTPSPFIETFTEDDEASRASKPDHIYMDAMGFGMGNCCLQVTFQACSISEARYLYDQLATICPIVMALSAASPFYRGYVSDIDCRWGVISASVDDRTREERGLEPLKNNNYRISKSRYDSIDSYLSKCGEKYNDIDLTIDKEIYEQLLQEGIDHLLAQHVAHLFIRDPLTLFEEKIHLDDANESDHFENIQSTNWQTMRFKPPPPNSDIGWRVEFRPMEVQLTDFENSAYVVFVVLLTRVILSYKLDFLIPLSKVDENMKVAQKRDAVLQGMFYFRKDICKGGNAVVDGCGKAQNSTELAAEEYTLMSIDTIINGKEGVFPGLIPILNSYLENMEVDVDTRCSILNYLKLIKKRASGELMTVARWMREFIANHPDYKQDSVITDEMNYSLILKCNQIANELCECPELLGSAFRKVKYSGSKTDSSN
T1 sequence (P48507 1-274 partner): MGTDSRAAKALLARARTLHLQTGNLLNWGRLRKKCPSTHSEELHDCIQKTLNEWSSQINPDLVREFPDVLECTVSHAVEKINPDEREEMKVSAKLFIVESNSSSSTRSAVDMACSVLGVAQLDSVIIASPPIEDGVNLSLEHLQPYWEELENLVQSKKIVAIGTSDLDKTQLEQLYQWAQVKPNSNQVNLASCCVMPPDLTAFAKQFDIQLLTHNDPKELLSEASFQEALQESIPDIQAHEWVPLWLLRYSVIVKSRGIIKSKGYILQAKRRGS

[2] = system: urinary tract infection caused by E. faecalis; test: Treatment of urinary tract infection in a patient; assay type: in vivo, human
Excerpt: A person weighing 50 kg presents to their physician with a urinary tract infection caused by E. faecalis. […] Two months later they return with a recurrence of the urinary tract infection due to E. faecalis.

[3] = system: vaginal colonization with S. agalactiae (Group B Streptococcus); settings: one 500 mg capsule by mouth every 6 hours from 2 days before due date
Excerpt: A person who is allergic to penicillin is seen for prenatal screening prior to delivery of their first child.

[4] = target: E. coli γ-GCS (Escherichia coli, UniProt P0A6W9); settings: cited from earlier work
E. coli γ-GCS, sequence (P0A6W9 whole entry): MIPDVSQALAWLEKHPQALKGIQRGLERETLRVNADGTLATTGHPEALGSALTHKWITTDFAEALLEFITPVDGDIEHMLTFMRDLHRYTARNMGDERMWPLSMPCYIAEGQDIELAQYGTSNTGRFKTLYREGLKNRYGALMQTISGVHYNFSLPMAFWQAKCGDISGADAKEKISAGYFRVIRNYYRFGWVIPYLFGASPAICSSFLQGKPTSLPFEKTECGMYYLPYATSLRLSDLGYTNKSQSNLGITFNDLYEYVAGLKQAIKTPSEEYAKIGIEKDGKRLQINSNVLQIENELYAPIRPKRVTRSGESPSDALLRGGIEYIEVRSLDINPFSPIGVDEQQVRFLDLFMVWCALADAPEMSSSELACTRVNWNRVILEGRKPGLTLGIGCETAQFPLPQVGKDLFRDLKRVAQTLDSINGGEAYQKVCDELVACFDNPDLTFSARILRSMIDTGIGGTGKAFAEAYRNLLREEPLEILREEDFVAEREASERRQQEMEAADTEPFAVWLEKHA

[5] = target: T2, S. agalactiae γ-GCS-GS (Streptococcus agalactiae serotype V, UniProt Q8DXM9); test: γ-GCS activity assay based on ADP formation, S. agalactiae γ-GCS-GS; assay type: biochemical; design: corresponded to full-length S. agalactiae γ-GCS-GS with an N-terminal His8-tag; made in house; host or cells: E. coli SG13009 with pQE30-gshAB plus pREP4 or pRARE
T2 sequence (Q8DXM9 1-750): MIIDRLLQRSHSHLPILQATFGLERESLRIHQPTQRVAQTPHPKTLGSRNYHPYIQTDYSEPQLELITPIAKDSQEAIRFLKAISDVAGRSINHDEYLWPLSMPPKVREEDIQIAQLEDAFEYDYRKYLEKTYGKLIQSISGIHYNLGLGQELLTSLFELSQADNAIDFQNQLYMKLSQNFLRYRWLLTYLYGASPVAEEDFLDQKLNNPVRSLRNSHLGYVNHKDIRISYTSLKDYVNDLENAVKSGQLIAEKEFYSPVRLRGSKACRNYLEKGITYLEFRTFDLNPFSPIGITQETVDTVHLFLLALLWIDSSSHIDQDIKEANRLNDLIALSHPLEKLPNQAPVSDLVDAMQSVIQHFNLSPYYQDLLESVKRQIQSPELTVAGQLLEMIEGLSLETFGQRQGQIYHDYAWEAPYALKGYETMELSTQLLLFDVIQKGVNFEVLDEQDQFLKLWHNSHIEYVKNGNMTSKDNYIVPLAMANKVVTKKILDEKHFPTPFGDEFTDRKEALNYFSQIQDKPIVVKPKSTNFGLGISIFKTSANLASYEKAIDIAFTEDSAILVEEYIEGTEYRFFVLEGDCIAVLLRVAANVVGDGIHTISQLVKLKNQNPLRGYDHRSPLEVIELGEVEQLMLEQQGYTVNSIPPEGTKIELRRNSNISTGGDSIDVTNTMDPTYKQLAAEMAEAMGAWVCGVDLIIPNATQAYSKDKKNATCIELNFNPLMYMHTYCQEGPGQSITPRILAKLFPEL
Method: In Table 1, a unit was defined as the amount of enzyme activity required to catalyze the formation of 1 μmol of product per hour. Specific activity was shown as units per mg protein. Activity was determined at 37° C. based on ADP formation in reaction mixtures containing L-glutamate and L-cysteine and using pyruvate kinase and lactate dehydrogenase to couple ADP formation to NADH oxidation, which was monitored at 340 nm.
Exp. Purif. 13, 268-276 (1998).
At set time points ranging from one to 30 minutes, 5 μl aliquots were removed and assayed for residual enzyme activity using the standard γ-GCS assay based on ADP formation.

Compound: CCCC[S@](=N)(=O)CC[C@H](N)C(=O)O [L-S—BSO, L-buthionine-S-sulfoximine, reference compound]
- Kd [1]: 25 µM
- Ki [1]: 25 µM
- kinact [1]: 3.9 min⁻¹
- t1/2 ([1]; half-life for inactivation): 0.183 min
- outcome of infection ([2]; one 500 mg capsule by mouth every 6 hours for two days): without resolution of the infection
- outcome of infection ([2]; two 500 mg capsules every 6 hours, fourth day): urine is free of detectable bacteria
- outcome of colonization [3]: no S. agalactiae bacteria are detected
- Kd [4]: 66 µM
- Ki [4]: 66 µM
- kinact [4]: ~0.30 min⁻¹
- t1/2 ([4]; half-life for inactivation): 2.3 min
- Kd [5]: 2800 ± 300 µM
- Ki [5]: 4900 ± 200 µM
- kinact [5]: 0.00217 s⁻¹
